What was measured:
[1] = test system: IL-4-producing (Th2) cells; assay: IL-4 ELISPOT on lymph node cells after pVAC1.OVA vaccination, adoptive transfer model; assay type: in vivo, Balb/c mice; conditions: for IL-4 producing cells, in words: pVAC1.OVA + adjuvant versus plasmid without adjuvant
Protocol: (§1) Splenocytes were prepared as in example 1 above.
(§2) Th CD4+ subsets were assessed using the adoptive transfer model (example 2, above). IFN-γ-producing (Th1) and IL-4-producing (Th2) cells were assayed by ELISPOT (example 1, above). […] No cytokine producing cells were detected in empty vector immunised controls.
(§3) Cartridges were prepared using the pVAC1.OVA plasmid, immunisations and T cell responses were as described in example 2.

[2] = test system: IFN-γ-producing (Th1) cells; assay: IFN-γ ELISPOT on lymph node cells after pVAC1.OVA vaccination, adoptive transfer model; assay type: in vivo, Balb/c mice; conditions: for IFN-γ producing cells, in words: pVAC1.OVA + adjuvant versus plasmid without adjuvant
Protocol: as §1, §2, §3

[3] = test system: cytotoxic T cell response; assay: CD8+ T cell-restricted IFN-γ ELISPOT of splenocytes after particle mediated vaccination with pVAC1.PR (influenza nucleoprotein plasmid); assay type: in vivo, C57B1/6 mice
Protocol: The cytotoxic T cell response was assessed by CD8+ T cell-restricted IFN-γ ELISPOT assay of splenocytes collected one week later. Mice were killed by cervical dislocation and spleens were collected into ice-cold PBS. Splenocytes were teased out into phosphate buffered saline (PBS) followed by lysis of red blood cells (1 minute in buffer consisting of 155 mM NH4Cl, 10 mM KHCO3, 0.1 mM EDTA). After two washes in PBS to remove particulate matter the single cell suspension was aliquoted into ELISPOT plates previously coated with capture IFN-γ antibody and stimulated with CD8-restricted cognate peptide. After overnight culture, IFN-γ producing cells were visualised by application of anti-murine IFN-γ-biotin labelled antibody (Pharmingen) followed by streptavidin—conjugated alkaline phosphatase and quantitated using image analysis.

[4] = test system: cytotoxic T cells (HIV antigens Gag and Nef); assay: IFN-γ ELISPOT of splenocytes with CD8-restricted Gag and Nef peptides after prime/boost vaccination with WRG7077.Gag/Nef; assay type: in vivo, Balb/c mice
Protocol: Here mice received a primary immunisation followed by a boost immunisation 42 days later.
IFN-γ ELISPOT assays were performed as described (example 1), using CD8-restricted cognate peptides for the Gag and Nef antigens to stimulate splenocytes collected 5 days after the boost immunisation.
Cartridges were prepared using the WRG7077Gag/Nef plasmid, PMID immunisations and T cell responses were as described in example 5. […] Spleens were collected for analysis 6 and 11 days after the boost immunisation.

EG7-OVA cells = assay: Tumour challenge with EG7-OVA cells after immunisation with pVAC1.OVA; assay type: in vivo, mice
[5] = imiquimod 100 mg/kg s.c. at boost only, splenocytes 5 days after boost, versus plasmid with vehicle

CC(C)(O)Cn1cnc2c(N)nc3ccccc3c21 [1-(2-hydroxy-2-methylpropyl)-1H-imidazo[4,5-c]quinolin-4-amine]
IL-4 producing cells, in words [1]: increased
IFN-γ producing cells, in words [2]: increased

Cc1nc2c(N)nc3ccccc3c2n1CC(C)(C)O [1-(2-hydroxy-2-methylpropyl)-2-methyl-1H-imidazo[4,5-c]quinolin-4-amine]
IL-4 producing cells, in words [1]: increased
increase in IL-4 producing CD4 T cells ([1]; single dose 30 mg/kg, 5 days after immunisation): Two
IFN-γ producing cells, in words [2]: increased

CCOCc1nc2c(N)nc3ccccc3c2n1CC(C)(C)O [Resiquimod, 1-(2-hydroxy-2-methylpropyl)-2-ethoxymethyl-1-H-imidazo[4,5-c]quinolin-4-amine]
effect on IL-4 producing CD4 T cells ([1]; 1 mg/kg, lymph node cells 5 days after immunisation): only a modest effect
IL-4 producing cells, in words [1]: increased
increase of IFN-γ producing CD4 T cells ([2]; 1 mg/kg (apparently optimal dose), lymph node cells 5 days after immunisation): six
IFN-γ producing cells, in words [2]: increased

CC(C)Cn1cnc2c(N)nc3ccccc3c21 [imiquimod, 1-(2-methylpropyl)-1H-imidazo[4,5-c]quinolin-4-amine]
IL-4 producing cells, in words [1]: increased
IFN-γ producing cells, in words [2]: increased
Th1/Th2 bias: increase of IFN-γ versus IL-4 producing cells ([2]; pVAC1.OVA + imiquimod, ELISPOT): more substantial for IFN-γ compared with IL-4
cytotoxic T cells, control plasmid (pVAC1) + imiquimod versus vehicle ([3]; empty vector pVAC1, imiquimod 30 mg/kg s.c.): No difference
number of cytotoxic T cells in the spleens, pVAC1.PR + imiquimod versus pVAC1.PR + vehicle ([3]; imiquimod 30 mg/kg single s.c. injection at immunisation site, splenocytes one week later): 3 times
cytotoxic T-cell response following vaccination with pVAC1.PR (FIG. 1) ([3]; in words): increases
increase in cytotoxic T cells, imiquimod s.c. injection ([4]; 30 mg/kg s.c., 11 days after boost, versus plasmid with s.c. vehicle): approximately 2 fold
increase in cytotoxic T cells, imiquimod topically ([4]; 20 μl of 5% (w/v) cream (Aldara) at PMID site, 11 days after boost, versus plasmid with s.c. vehicle): approximately 2 fold
increase in cytotoxic T cells, Gag [4, 5]: 10 fold
increase in cytotoxic T cells, Nef [4, 5]: 100 fold
cytotoxic T-cell response following vaccination with WRG7077.Gag/Nef (FIG. 5) ([4]; in words): increases
cytotoxic T-cell response, topical application (FIG. 8) ([4]; in words): increases
growth of tumours (FIG. 9) (EG7-OVA cells; in words): delays
tumourigenicity of EG7.OVA tumour cells (FIG. 10) (EG7-OVA cells; in words): reduces
tumourigenicity (EG7-OVA cells; mice immunised with pVAC1.OVA + imiquimod 30 mg/kg s.c., 100,000 cells/mouse two weeks after boost): 25%
appearance of palpable tumours (EG7-OVA cells; pVAC1.OVA + imiquimod 30 mg/kg s.c. compared with pVAC1.OVA alone): most delayed
